These results are taken from US9884858B2, “Diaryl-azole compound” (Sumitomo Chemical Company, Limited, priority 2014, dated 2018).

Bounds are passed on as bounds.

Common to all, as to assay type: in vivo
For experiment [1], the system named is Haemaphysalis longicornis. Briefly: Test Example 11: coated screw tube contact test, Haemaphysalis longicornis ticks. Particulars: 2 mg compound coated on inner wall of screw tube, non-blood-sucking nymphal ticks, after 2 days. The procedure:
2 mg of each of the compounds 1-6, 1-10, 1-15, 1-24 or 1-37 to 1-38 was weighed in a screw tube (Maruemu No. 5; 27×55 mm), and 0.2 mL of acetone was added thereto and sealed with a cap to dissolve the compound. The screw tube was rotated and inverted to uniformly coat the liquid onto the whole inner wall of the tube. After removing the cap, the solution was air-dried for about 2 hours, then non-blood-sucking nymphal ticks, Haemaphysalis longicornis (5 ticks/group) were released, and the tube was sealed with the cap. After 2 days, the number of dead insects was counted, and the death rate was calculated according to the following equation: Death rate (%)=100×(Number of dead insects/Number of tested insects)

In experiment [2] the test system is Blattella germanica. Briefly: Test Example 9: filter paper with sucrose bait, Blattella germanica. The settings on record: 500 ppm, 0.7 ml on filter paper, male imagoes, after 6 days. The procedure:
The formulation of the compound 1-6 or 1-24 as obtained in Formulation Example 5 was diluted with water, so as to have a concentration of each compound of 500 ppm, to obtain a diluent.
A filter paper having a diameter of 5.5 cm was spread on the bottom of a polyethylene cup having the same diameter and 0.7 ml of the diluent was added dropwise onto the filter paper, and 30 mg of sucrose was uniformly placed as bait. Into the polyethylene cup, 2 male imagoes of Blattella germanica were released, and the cup was sealed with a lid. After 6 days, the life and death of Blattella germanica was examined, the number of dead insects was counted, and the death rate was calculated according to the following equation. Death rate (%)=(Number of dead insects/Number of tested insects)×100

Experiment [3] deals with Nilaparvata lugens. Kind of experiment: Test Example 4: soil drench of rice seedling, Nilaparvata lugens larvae released. Particulars: 500 ppm, 5 ml drench at foot of rice seedling, third instar larvae released after 7 days, examined 6 days later. The procedure: The formulation of the compound 1-15 as obtained in Formulation Example 5 was diluted with water, so as to have a concentration of the compound of 500 ppm, to obtain a diluent.
On the other hand, a rice seedling (2 weeks after sowing, the second leaf stage) planted in a plastic cup was drenched at its foot with 5 ml of the diluent, and kept in a greenhouse at 25° C. for 7 days. 20 third instar larvae of Nilaparvata lugens were released, and further kept in the greenhouse for 6 days, then the number of surviving Nilaparvata lugens parasitic on the rice was examined, and the death rate was calculated according to the following equation: Death rate (%)=(1−Surviving insects/20)×100
wherein the non-treated section refers to a section where a liquid prepared by diluting the formulation not containing the present compound in Formulation Example 5 with the same amount of water as in the treated section was sprayed.

Experiment [4] relates to Aphis gossypii. Kind of experiment: Test Example 2: soil drench of cucumber seedling, later inoculated with Aphis gossypii. The settings on record: 500 ppm, 5 ml drench at foot of cucumber seedling, inoculated after 7 days, examined 6 days later. As for the experimental part: The formulations of the compound 1-24 as obtained in Formulation Example 5 was diluted with water, so as to have a concentration of each compound of 500 ppm, to obtain a diluent. On the other hand, a cucumber seedling (the second true leaf stage) planted in a plastic cup was drenched at its foot with 5 ml of the diluent, and kept in a greenhouse at 25° C. for 7 days. On the cucumber leaf surface was inoculated about 30 Aphis gossypii (whole stage), and further kept in the greenhouse for 6 days, then the number of the surviving Aphis gossypii parasitic on the leaves of the cucumber was examined, and the control value was calculated according to the following equation: Control value (%)=(1−(Cb×Tai)/(Cai×Tb))×100 wherein the symbols represent as follows: Cb: the number of the insects in a non-treated section on inoculating insects Cai: the number of the surviving parasitic insects in a non-treated section on observation Tb: the number of the insects in a treated section on inoculating insects Tai: the number of the surviving parasitic insects in a treated section on observation wherein the non-treated section refers to a section where a liquid prepared by diluting the formulation not containing the present compound in Formulation Example 5 with the same amount of water as in the treated section was sprayed.

On to `CCSc1cc(C(F)(F)F)ccc1-c1nc(-c2ccc(C(F)(F)F)cn2)no1` [Compound 1-6], for which the Death rate in experiment [1] and in experiment [2] was 100% throughout.

`CCSc1cc(C(F)(F)F)ccc1-c1nnc(-c2ccc(C(F)(F)F)cn2)s1` [Compound 1-10] returned a Death rate in experiment [1] of 100%.

`CCS(=O)(=O)c1cccnc1-c1noc(-c2cc(C(F)(F)F)cc(C(F)(F)F)c2)n1` [Compound 1-15]: the values for the Death rate in experiment [1] and in experiment [3] were 100% and ≥ 90%, respectively.

`CCS(=O)(=O)c1ccccc1-c1noc(-c2cc(C(F)(F)F)cc(C(F)(F)F)c2)n1` [Compound 1-24]: the Death rate in experiment [1] and in experiment [2] was 100% throughout. Further, in experiment [4], the controlling value was ≥ 90%.

For `CCS(=O)(=O)c1cccnc1-c1noc(-c2ccc(C(F)(F)F)s2)n1` [Compound 1-37], the Death rate in experiment [1] is 100%.

For `CCS(=O)(=O)c1cccnc1-c1noc(-c2cc(Cl)cc(Cl)c2)n1` [Compound 1-38], the Death rate in experiment [1] came to 100%.
